Reference: patent US20260284078A1, “IMMUNOS[…] AND METHODS THEREOF” (priority 2023, published 2026)

How the values were obtained:
[1] = Example 5 peripheral drug exposures in blood and plasma; format: in vivo, cynomolgus macaques; details: oral once per day (Dex 0.5 mg/kg, Tac 1 mg/kg, Pred 3 mg/kg); day 21, 4 hours post-dosing
Source text: FIG. 9. Exemplary peripheral drug exposures in blood and plasma. […] The X axis of the graph denotes immunosuppression agent (dexamethasone, tacrolimus, or prednisolone); the Y axis of the graph depicts ng/ml of the immunosuppression agent as detected in blood for dexamethasone and prednisolone or in plasma for tacrolimus. Each circle represents data collected from one animal.

cynomolgus macaques [2] = test: Example 5 histopathological lesions in examined animals (Table 1); format: in vivo; details: rAAV 5×10^13 vg/kg IV + regimen, day 22 necropsy
Source text: FIGS. 10A-10C. […] Columns represent average value for each treatment group. […] Treatment group is denoted at left. […] Magnification is indicated at top. […] Treatment groups of animals are indicated at top.

cynomolgus macaques [3] = test: Example 5 liver enzymes and total bilirubin in blood (Table 2); details: rAAV 5×10^13 vg/kg IV plus regimen
Source text: Blood samples were collected from animals on days-7, 4, 8, 15, and 22 (wherein 0=day of rAAV administration) and subsequently analyzed for levels of certain liver enzymes and total bilirubin. […] (D) Level of total bilirubin (TBIL) was quantified. The X axis depicts day of study (wherein 0=day of rAAV administration); the Y axis depicts milligrams (mg) per deciliter (dL) of total bilirubin. Each graphed line corresponds to data collected from one animal. Legend at right identifies treatment group.
Reduction in liver toxicity upon treatment with rAAV by tested immunosuppression regimens was investigated through measurement of levels of liver enzymes and analysis of liver lesions at necropsy.

C[C@]12C=CC(=O)C=C1CC[C@@H]1[C@@H]2[C@@H](O)C[C@@]2(C)[C@H]1CC[C@]2(O)C(=O)CO [Pred, prednisolone]
peripheral drug exposure [1]: achieved targeted ranges of peripheral drug exposure
Dorsal root ganglia, cervical: Infiltrate, mononuclear cell (animals affected, total) (cynomolgus macaques [2]; 3 examined per group): (0)
Dorsal root ganglia, cervical: Infiltrate, mononuclear cell, Minimal (animals) (cynomolgus macaques [2]; 3 examined per group): 0
Dorsal root ganglia, lumbar: Degeneration/necrosis, neuron (animals affected, total) (cynomolgus macaques [2]; 3 examined per group): (3)
Dorsal root ganglia, lumbar: Degeneration/necrosis, neuron, Minimal (animals) (cynomolgus macaques [2]; 3 examined per group): 3
Dorsal root ganglia, lumbar: Infiltrate, mononuclear cell (animals affected, total) (cynomolgus macaques [2]; 3 examined per group): (3)
Dorsal root ganglia, lumbar: Infiltrate, mononuclear cell, Minimal (animals) (cynomolgus macaques [2]; 3 examined per group): 3
Dorsal root ganglia, sacral: Degeneration/necrosis, neuron (animals affected, total) (cynomolgus macaques [2]; 3 examined per group): (1)
Dorsal root ganglia, sacral: Degeneration/necrosis, neuron, Minimal (animals) (cynomolgus macaques [2]; 3 examined per group): 1
Dorsal root ganglia, sacral: Infiltrate, mononuclear cell (animals affected, total) (cynomolgus macaques [2]; 3 examined per group): (1)
Dorsal root ganglia, sacral: Infiltrate, mononuclear cell, Mild (animals) (cynomolgus macaques [2]; 3 examined per group): 1
Dorsal root ganglia, sacral: Infiltrate, mononuclear cell, Minimal (animals) (cynomolgus macaques [2]; 3 examined per group): 0
Dorsal root ganglia, thoracic: Degeneration/necrosis, neuron (animals affected, total) (cynomolgus macaques [2]; 3 examined per group): (1)
Dorsal root ganglia, thoracic: Degeneration/necrosis, neuron, Minimal (animals) (cynomolgus macaques [2]; 3 examined per group): 1
Dorsal root ganglia, thoracic: Infiltrate, mononuclear cell (animals affected, total) (cynomolgus macaques [2]; 3 examined per group): (2)
Dorsal root ganglia, thoracic: Infiltrate, mononuclear cell, Minimal (animals) (cynomolgus macaques [2]; 3 examined per group): 2
Heart: Degeneration, myocardium (animals affected, total) (cynomolgus macaques [2]; 3 examined per group): (1)
Heart: Degeneration, myocardium, Minimal (animals) (cynomolgus macaques [2]; 3 examined per group): 1
Heart: Infiltrate, mononuclear cell, adipose (animals affected, total) (cynomolgus macaques [2]; 3 examined per group): (3)
Heart: Infiltrate, mononuclear cell, adipose, Minimal (animals) (cynomolgus macaques [2]; 3 examined per group): 3
Heart: Infiltrate, mononuclear cell, myocardium (animals affected, total) (cynomolgus macaques [2]; 3 examined per group): (2)
Heart: Infiltrate, mononuclear cell, myocardium, Mild (animals) (cynomolgus macaques [2]; 3 examined per group): 1
Heart: Infiltrate, mononuclear cell, myocardium, Minimal (animals) (cynomolgus macaques [2]; 3 examined per group): 1
Sciatic nerve: Degeneration, nerve fiber (animals affected, total) (cynomolgus macaques [2]; 3 examined per group): (1)
Sciatic nerve: Degeneration, nerve fiber, Minimal (animals) (cynomolgus macaques [2]; 3 examined per group): 1
Trigeminal ganglion: Degeneration/necrosis, neuron (animals affected, total) (cynomolgus macaques [2]; 3 examined per group): (2)
Trigeminal ganglion: Degeneration/necrosis, neuron, Minimal (animals) (cynomolgus macaques [2]; 3 examined per group): 2
Trigeminal ganglion: Infiltrate, mononuclear cell (animals affected, total) (cynomolgus macaques [2]; 3 examined per group): (2)
Trigeminal ganglion: Infiltrate, mononuclear cell, Minimal (animals) (cynomolgus macaques [2]; 3 examined per group): 2
Sympathetic ganglia, thoracic: Infiltrate, mononuclear cell (animals affected, total) (cynomolgus macaques [2]; examined: Dex/Tac 1, Pred 3): (2)
Sympathetic ganglia, thoracic: Infiltrate, mononuclear cell, Minimal (animals) (cynomolgus macaques [2]; examined: Dex/Tac 1, Pred 3): 2
Sympathetic ganglia, cervical: Infiltrate, mononuclear cell (animals affected, total) (cynomolgus macaques [2]; examined: Dex/Tac 3, Pred 2): (1)
Sympathetic ganglia, cervical: Infiltrate, mononuclear cell, Minimal (animals) (cynomolgus macaques [2]; examined: Dex/Tac 3, Pred 2): 1
total bilirubin levels (cynomolgus macaques [3]): notable increases

C=CC[C@@H]1/C=C(\C)C[C@H](C)C[C@H](OC)[C@H]2O[C@@](O)(C(=O)C(=O)N3CCCC[C@H]3C(=O)O[C@H](/C(C)=C/[C@@H]3CC[C@@H](O)[C@H](OC)C3)[C@H](C)[C@@H](O)CC1=O)[C@H](C)C[C@@H]2OC [Tac, tacrolimus]
peripheral drug exposure [1]: achieved targeted ranges of peripheral drug exposure

C[C@@H]1C[C@H]2[C@@H]3CCC4=CC(=O)C=C[C@]4(C)[C@@]3(F)[C@@H](O)C[C@]2(C)[C@@]1(O)C(=O)CO [Dex, dexamethasone]
peripheral drug exposure [1]: achieved targeted ranges of peripheral drug exposure
